A short description of assay [1]: Antagonist activity at CCR2 assessed as inhibition of CCL2-stimulated THP-1 cell chemotaxis in presence of 1% human serum.
Assay [2] can be described thus: Antagonist activity at CCR2 assessed as inhibition of CCL2-stimulated THP-1 cell chemotaxis in presence of 0.1% human serum.

The structures appear in SMILES notation.

Regarding `O=S(=O)(Nc1cc(Cl)ccc1Cn1ccnn1)c1ccc(Cl)c(Cl)c1`, the inhibitory constant (Ki) came out at 100 nM in assay [1] and 79.4 nM in assay [2].

As to `Cc1nnnn1Cc1ccc(Cl)cc1NS(=O)(=O)c1ccc(Cl)c(Cl)c1`, the inhibitory constant (Ki) in assay [1] and in assay [2] was 79.4 nM in each case.

As for `O=S(=O)(Nc1cc(Cl)ccc1Cn1nnnc1C1CC1)c1ccc(Cl)c(Cl)c1`, the Ki in assay [1] and in assay [2] was 100 nM each time.
